Marks after values point to notes of the source that are not given here.
How the values were obtained:
D. barberi [1] = assay: Sticky trap attraction along hybrid corn, Pomology South Farms (Example 2); type: in vivo, Diabrotica barberi; conditions: 100 mg per trap, n = 4
Procedure: (§1) The candidate lures in all experiments were purchased commercially and exceeded 98% purity. The test chemicals were applied by capillary micropipettes to cotton dental wicks which were attached to the tops of 1.0 liter cylindrical paper cartons covered with TangleTrap™ (Tanglefoot Co., Grand Rapids, Mich.). The sticky trap techniques used were as described in Example 1. Cinnamyl alcohol and para-methoxycinnamaldehyde, which are solids, were dissolved in glass-distilled acetone prior to dosing the cotton wicks. All treatments were applied at a dosage of 100 mg per trap. 1,2,4-trimethoxybenzene, indole, and trans-cinnamaldehyde were mixed in a ratio of 1:1:1, by weight, immediately prior to dosing the cotton wicks. Control traps had untreated cotton wicks. Four replicates of treated and untreated traps were randomly positioned 10 meters apart on top of 1 m high posts along the border of a eight foot wide strip cut through the middle of a 4.05 ha relict prairie at Trelease Woods (ca. two miles northeast of Urbana, Ill.). The field consisted primarily of Andropogon gerardii Vitman (big bluestem) and a variety of composites. The tests were conducted in mid-August of two years and were timed to coincide with the presence of D. cristata and D. barberi adults in the flower heads of Canada thistle (Carduus arvensis Robson). In the second year, several new attractants of D. v. virgifera and D. barberi were tested in Trelease Woods and along the edge of a 0.8 ha field of hybrid corn located at the Pomology South Farms, Urbana, Ill. Attraction of Diabrotica species to the various lures was measured by the mean number of beetles caught after 24-h. On one date in late August of the first year, D. cristata and D. barberi were removed from the traps and sexed in the laboratory. The significance of treatments in all tests was determined by an analysis of variance and the individual means were separated by Duncan's multiple range test (Statistical Package for Social Science, Nie, et al., SPSS: statistical package for the social sciences, 2nd ed. McGraw-Hill, New York (1975). Data were logarithmically transformed for statistical analysis and the means and standard deviations are presented for the untransformed data.

[2] = test system: southern corn rootworm (SCR) adults; assay: Sticky trap attraction in corn, estragole analogues (Example 3); type: in vivo, Diabrotica undecimpunctata howardi; conditions: 100 mg per trap, n = 4
Summary of the method: (§2)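 Cotton wicks dosed with 100 mg or 100 μL attractant per trap on TangleTrap-coated cartons, four replicates 10 m apart on 1 m posts at field edges of hybrid or sweet corn. Mean beetles caught after ~24 h; log-transformed ANOVA with Duncan's test, P=0.05.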

[3] = test system: northern corn rootworm (NCR); assay: Sticky trap attraction in corn, phenylethanol analogues (Example 6); type: in vivo, Diabrotica barberi; conditions: 100 mg per trap, four replicates, 24 hour
Procedure: (§3) Test chemicals (purchased from Aldrich Chemical Co.; Milwaukee, Wis.) were applied by capillary micropipettes to cotton dental wicks that were attached to tops of 1.0 liter cylindrical paper cartons covered with TangleTrap™, Grand Rapids, Mich. The trapping techniques used were as previously described in Example 1. Unless otherwise indicated, all treatments were made at a dosage of 100 mg or 100 μL of attractant per trap. Control traps had untreated wicks. Four replicates of treated and untreated traps were positioned randomly 10 meters apart on top of 1 m high posts along the edges of 25-50 ha. fields of hybrid corn (Zea mays), infested with adult NCR, SCR, and WCR beetles. Several experiments detailed in the Tables were made in a 0.4 ha plot of sweet corn (Illini X-tra Sweet).
(§4) Attraction of Diabrotica species adults of the sticky traps was measured by the mean number of beetles caught after 1 day (ca. 24 hours) exposure. The significance of the treatments was determined by analysis of variance and the individual means were separated by Duncan's multiple range test (Statistical Package for the Social Sciences, Nie, et al., 2nd. ed. McGraw-Hill, New York (1975). The data was logarithmically transformed for statistical analysis. Means and standard deviations are presented for the untransformed data. Significance levels were set at P=0.05 for all statistical analyses.

D. v. virgifera [4] = assay: Sticky trap attraction in prairie habitat, Trelease Woods (Example 2); type: in vivo, Diabrotica virgifera virgifera; conditions: August 11, 1987; 100 mg per trap; n = 4
Summary of the method: (§5)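 Lure-dosed cotton wicks (solids in acetone; untreated controls) on TangleTrap-coated cartons atop 1 m posts, four replicates 10 m apart in relict prairie, mid-August over two years. Read-out: mean beetles caught after 24-h; log-transformed ANOVA with Duncan's multiple range test.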

D. v. virgifera [5] = assay: Sticky trap attraction along hybrid corn, Pomology South Farms (Example 2); type: in vivo, Diabrotica virgifera virgifera; conditions: 100 mg per trap, n = 4
Procedure: as §1

[6] = test system: western corn rootworm (WCR) adults; assay: Sticky trap attraction in corn, estragole analogues (Example 3); type: in vivo, Diabrotica virgifera virgifera; conditions: for Mean number of WCR adults per sticky trap (±standard deviation) after 24 hours / Mean number of WCR (±standard deviation) per sticky trap after 24 hours: 100 mg per trap, n = 4
Summary of the method: as §2

D. cristata = assay: Sticky trap attraction in prairie habitat, Trelease Woods (Example 2); type: in vivo, Diabrotica cristata; conditions: August 11, 1987; 100 mg per trap; n = 4
Summary of the method: as §5

[7] = test system: western corn rootworm (WCR); assay: Sticky trap attraction in corn, phenylethanol analogues (Example 6); type: in vivo, Diabrotica virgifera virgifera; conditions: 100 mg per trap, four replicates, 24 hour
Procedure: as §3, §4

D. barberi [8] = assay: Sticky trap attraction in prairie habitat, Trelease Woods (Example 2); type: in vivo, Diabrotica barberi; conditions: August 11, 1987; 100 mg per trap; n = 4
Summary of the method: as §5

D. u. howardi [9] = assay: Sticky trap attraction along hybrid corn, Pomology South Farms (Example 2); type: in vivo, Diabrotica undecimpunctata howardi; conditions: 100 mg per trap, n = 4
Procedure: as §1

WCR = conditions: in vivo; cited from earlier work
D. u. howardi [10] = assay: Sticky trap attraction in prairie habitat, Trelease Woods (Example 2); type: in vivo, Diabrotica undecimpunctata howardi; conditions: August 11, 1987; 100 mg per trap; n = 4
Summary of the method: as §5

[11] = test system: northern corn rootworm (NCR) adults; assay: Sticky trap attraction in corn, estragole analogues (Example 3); type: in vivo, Diabrotica barberi; conditions: 100 mg per trap, n = 4
Procedure: as §3, with “chemicals” for “chemicals (purchased from Aldrich Chemical Co.; Milwaukee, Wis.)”, “Cinnamyl alcohol, 4-methoxycinnamaldehyde, cinnamyl acetate, and 4-(4′methoxyphenyl)-3-butene-2-one which are solids at ambient temperature were prepared as standard w/v solutions in acetone prior to dosing the cotton wicks. All” for “Unless otherwise indicated, all”
as §4

**Q.** Which results are given for `COc1ccc(C=CC=O)cc1` [XI, 4-methoxycinnamaldehyde]?
**A.** Mean number of D. barberi per stick trap per day (±standard deviation) in corn (D. barberi [1]; August 7): 0.3 ± 0.5^a per stick trap per day; Mean number of D. barberi per stick trap per day (±standard deviation) in corn (D. barberi [1]; August 18): 1.0 ± 0.8^a per stick trap per day; Mean number of SCR adults per sticky trap (±standard deviation) after 24 hours ([2]; August 4 second year): 9.0 ± 6.5^b per sticky trap; Mean number of SCR adults per sticky trap (±standard deviation) after 24 hours ([2]; August 5 first year): 42.7 ± 27.6^b per sticky trap; Mean number of SCR (±standard deviation) per sticky trap after 24 hours ([2]; August 7 (Table 11)): 1.5 ± 2.4^a per sticky trap; Mean number of SCR (±standard deviation) per sticky trap after 24 hours ([2]; August 18 (Table 11)): 0.0^a per sticky trap; Mean number of SCR adults per sticky trap (±standard deviation) after 24 hours ([2]; September 11): 1.5 ± 1.3^ab per sticky trap; Mean number of NCR per trap (± standard deviation) ([3]; Table 15): 6.4 ± 4.9a per trap; Mean number of NCR per trap (± standard deviation) ([3]; Table 17): 2.5 ± 1.9a per trap; Mean number of D. v. virgifera per day (±standard deviation) (D. v. virgifera [4]): 8.5 ± 5.3^b per day; Mean number of D. v. virgifera per stick trap per day (±standard deviation) in corn (D. v. virgifera [5]; August 7): 375.0 ± 50.0^d per stick trap per day; Mean number of D. v. virgifera per stick trap per day (±standard deviation) in corn (D. v. virgifera [5]; August 18): 178.8 ± 32.0^c per stick trap per day; period over which treated wicks remained highly attractive to WCR ([6]; 100 mg on wick, transferred daily to fresh traps, August sunlight, two heavy rainstorms): ≥ 16 days; Mean number of WCR adults per sticky trap (±standard deviation) after 24 hours ([6]; August 4 second year): 204.7 ± 34.6^e per sticky trap; Mean number of WCR adults per sticky trap (±standard deviation) after 24 hours ([6]; August 5 first year): 143.7 ± 75.3^e per sticky trap; Mean number of WCR (±standard deviation) per sticky trap after 24 hours ([6]; August 7 (Table 11)): 375.0 ± 50.0^c per sticky trap; Mean number of WCR (±standard deviation) per sticky trap after 24 hours ([6]; August 18 (Table 11)): 178.7 ± 31.9^b per sticky trap; Mean number of WCR adults per sticky trap (±standard deviation) after 24 hours ([6]; September 11): 22.2 ± 23.1^b per sticky trap; effectiveness relative to previously described WCR attractants (indole, estragole) ([6]; by LR): about 100 fold; limit of response (LR) for attraction of WCR adults in corn ([6]; on cotton wicks, logarithmically decreasing amounts): ~0.03 mg; Mean number of D. cristata per day (±standard deviation) (D. cristata): 11.0 ± 6.7^b per day; Mean number of WCR per trap (±standard deviation) ([7]; Table 15): 567.5 ± 111.6b per trap; Mean number of WCR per trap (± standard deviation), column WCW ([7]; Table 17): 360.2 ± 181.3c per trap; Mean number of D. barberi per day (±standard deviation) (D. barberi [8]): 1.0 ± 0.8^a per day; Mean number of D. u. howardi per stick trap per day (±standard deviation) in corn (D. u. howardi [9]; August 7): 1.5 ± 2.4^a per stick trap per day; Mean number of D. u. howardi per stick trap per day (±standard deviation) in corn (D. u. howardi [9]; August 18): 0.0^a per stick trap per day; LR for WCR, most effective volatile attractants yet identified (WCR): 0.03 mg; Mean number of D. u. howardi per day (±standard deviation) (D. u. howardi [10]): 0.3 ± 0.5^a per day; Mean number of NCR (±standard deviation) per sticky trap after 24 hours ([11]; August 7 (Table 11)): 0.0^a per sticky trap; Mean number of NCR (±standard deviation) per sticky trap after 24 hours ([11]; August 18 (Table 11)): 1.0 ± 0.8^a per sticky trap

— patent US6613317B1, “Volatile attractants for diabrotica species” (priority 1988, dated 2003)
